Measured values: article PMC6332508, “A Promising PET Tracer for Imaging of α7 Nicotinic Acetylcholine Receptors in the Brain: Design, Synthesis, and in Vivo Evaluation of a Dibenzothiophene-Based Radioligand” (Molecules, 2015)

Key:
[1] = Distribution coefficient, shake-flask method, n-octanol/PBS; type: physicochemical; conditions: n-octanol/phosphate-buffered saline; n-octanol-PBS, pH 7.2, shake-flask, n = 3; read-out: log D7.2
Method: (§1) in vitro radiochemical stability of [^18F]10a was investigated in 0.9% NaCl solution, PBS (pH 7.2), and 0.01 M Tris-HCl (pH 7.4 at 21 °C) at 40 °C and in EtOH at room temperature for up to 90 min. Samples were taken at 15, 30, 60, and 90 min of incubation time and analyzed by radio-TLC and radio-HPLC. Log D7.2 of [^18F]10a was experimentally determined in n-octanol/phosphate-buffered saline (PBS; 0.01 M, pH 7.2) at room temperature by the shake-flask method in multiple distribution. Measurement was performed twice in triplicate.

[2] = In vitro radiochemical stability; type: physicochemical; conditions: 40 °C, up to 90 min
Method: as §1

[3] = Metabolite analysis in pig plasma; type: in vivo, pigs
Method: To control the quality of the K[^18F]F-Kryptofix®222/K2CO3-complex, reactions using ethylene glycol ditosylate were performed randomly. Radio-TLC of [^18F]10a and [^18F]10b was performed on Polygram® ALOX N/UV254 plates (Macherey-Nagel GmbH & Co. KG) with dichloromethane/methanol (9:1, v/v). The spots of the references were visualized using UV light at 254 nm.
Arterial blood was sampled using a peristaltic pump during the first 20 min of the scan followed by manual sampling at 25, 30, 40, 50, 60, 90, 120, 150, 180, 210, and 240 min after injection. Plasma was obtained by centrifugation (13,000 rpm, 2 min at 21 °C) and total radioactivity concentration was measured using a gamma-counter (1470 Wizard; PerkinElmer, Shelton, CT, USA) cross-calibrated to the PET scanner. […]
The plasma input function was corrected for the presence of radioactive metabolites by determination of the parent fraction as described previously. Plasma samples were de-proteinized by addition of ice-cold acetonitrile (500 μL MeCN/100 μL plasma) followed by centrifugation (13,000 rpm, 10 min). Aliquots of the original plasma sample and of the supernatant obtained after centrifugation were counted for radioactivity, and the supernatant was analyzed by radio-HPLC following the chromatographic methods described in quality control. The parent fraction as a function of time was fitted iteratively with the Levenberg-Marquardt algorithm, including decay correction, to calculate metabolite corrected input function.

α7 nAChR = target: T1, α7 nAChR (Macaca mulatta, UniProt Q866A2); assay: Comparative PET study in a rhesus monkey; type: in vivo, rhesus monkey (Macaca mulatta)
T1 construct: from tissue; host or cells: brain of a living rhesus monkey
Method: One male rhesus monkey (Macaca mulatta, 6 years old, body weight = 10 kg) underwent two PET imaging sessions with [^18F]10a and [^18F]10b, respectively. The scans were conducted 19 days apart. The monkey was initially sedated by intramuscular ketamine at 10 mg∙kg^−1 at ~2 h before the PET scan and anesthetized by 1.5%–3% isoflurane throughout the imaging session. PET scan was performed using a FOCUS-220 PET scanner (Siemens Preclinical Solutions, Knoxville, TN, USA). After a transmission scan, 167 MBq of [^18F]10a (specific activity of 362 GBq∙μmol^−1) or 185 MBq of [^18F]10b (specific activity of 159 GBq·μmol^−1) were administered intravenously. Emission data were acquired in list mode for 240 min. Raw list-mode PET data was histogrammed (frames of 6 × 30 s; 3 × 1 min; 2 × 2 min; 46 × 5 min to scan termination) and reconstructed with 2D filtered back projection, using a 0.15 cm^−1 Shepp filter and including corrections for scanner normalization, detector dead time, randoms, and radiation scatter and attenuation. The PET images were then registered to MR images, acquired with a Siemens 3 T Trio scanner, with a 6-parameter rigid body registration. The MR native space was then normalized using nonlinear affine registration to a high-resolution rhesus monkey atlas using BioImage Suite 3.01 (http://www.bioimagesuite.org/index.html). Time-activity curves were extracted by mapping atlas-defined regions to PET native space using the optimal transformation matrices calculated in the registration and normalization steps. Regions extracted included amygdala, caudate, cerebellum, cingulate, cortical regions (frontal, occipital, and temporal cortex), hippocampus, putamen, thalamus, and pons.

T1 sequence (Q866A2 23-502): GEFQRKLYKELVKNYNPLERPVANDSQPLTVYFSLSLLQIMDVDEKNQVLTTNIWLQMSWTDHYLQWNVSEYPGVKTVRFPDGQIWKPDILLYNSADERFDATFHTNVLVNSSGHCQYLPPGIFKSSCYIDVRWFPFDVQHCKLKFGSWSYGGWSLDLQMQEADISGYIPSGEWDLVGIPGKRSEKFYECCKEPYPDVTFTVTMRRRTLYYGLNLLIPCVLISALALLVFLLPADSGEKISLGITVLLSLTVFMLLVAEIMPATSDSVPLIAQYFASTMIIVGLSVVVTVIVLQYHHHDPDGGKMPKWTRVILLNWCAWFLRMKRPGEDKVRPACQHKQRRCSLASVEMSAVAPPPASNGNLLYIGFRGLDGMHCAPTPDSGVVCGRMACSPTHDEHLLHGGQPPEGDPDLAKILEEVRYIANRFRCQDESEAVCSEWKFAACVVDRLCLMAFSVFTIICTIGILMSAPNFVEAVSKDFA

O=S1(=O)c2ccc([18F])cc2-c2ccc(N3CCN4CCC3CC4)cc21 [[^18F]10a]
logD [1]: 1.3 ± 0.1
stability in physiological solutions and organic solvents [2]: stable
Parent fraction of total radioactivity in plasma ([3]; 2 min p.i.): 88%
Parent fraction of total radioactivity in plasma ([3]; 60 min p.i.): 24%
Parent fraction of total radioactivity in plasma ([3]; 120 min p.i.): 19%
total volume of distribution VT (α7 nAChR; cerebellum): 28.5 mL∙cm^−3
total volume of distribution VT (α7 nAChR; thalamus): 48.1 mL∙cm^−3
